Laboratory results as given in ChEMBL document CHEMBL1143380, “N-[6-amino-2-(heteroaryl)pyrimidin-4-yl]acetamides as A2A receptor antagonists with improved drug like properties and in vivo efficacy” (J Med Chem, 2009).
Converted amounts (≈) assume the structure as drawn.

Legend:
Adenosine receptor A2a [1] = biological target: T1, Adenosine receptor A2a (Homo sapiens, UniProt P29274); experiment: Displacement of [3H]ZM241385 from human adenosine A2A receptor expressed in HEK293 cells; type: cell-based
T1 sequence (P29274 whole entry): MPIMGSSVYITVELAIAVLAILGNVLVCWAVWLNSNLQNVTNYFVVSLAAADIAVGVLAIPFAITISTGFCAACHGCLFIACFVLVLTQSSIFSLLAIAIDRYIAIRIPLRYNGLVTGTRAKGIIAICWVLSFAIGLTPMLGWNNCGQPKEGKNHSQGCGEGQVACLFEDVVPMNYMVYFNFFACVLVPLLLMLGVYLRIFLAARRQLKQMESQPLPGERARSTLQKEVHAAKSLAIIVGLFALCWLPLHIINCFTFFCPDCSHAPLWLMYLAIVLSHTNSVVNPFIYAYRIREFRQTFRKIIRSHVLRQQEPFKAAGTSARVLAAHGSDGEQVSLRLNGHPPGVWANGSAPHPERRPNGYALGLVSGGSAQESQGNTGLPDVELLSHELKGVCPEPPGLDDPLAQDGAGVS

Adenosine receptor A1 = biological target: T2, Adenosine receptor A1 (Homo sapiens, UniProt P30542); experiment: Displacement of [3H]DPCPX from human adenosine A1 receptor expressed in HEK293 cells; type: cell-based
T2 sequence (P30542 whole entry): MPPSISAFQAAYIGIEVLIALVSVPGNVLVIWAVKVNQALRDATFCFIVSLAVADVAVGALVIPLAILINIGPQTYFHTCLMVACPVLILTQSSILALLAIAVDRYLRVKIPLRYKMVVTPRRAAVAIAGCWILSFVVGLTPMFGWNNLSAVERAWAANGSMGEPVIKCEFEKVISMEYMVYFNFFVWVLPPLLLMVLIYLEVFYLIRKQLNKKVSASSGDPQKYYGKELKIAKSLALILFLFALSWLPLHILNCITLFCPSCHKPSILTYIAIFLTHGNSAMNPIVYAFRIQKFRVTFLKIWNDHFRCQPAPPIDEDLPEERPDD

Homo sapiens = species on record: Homo sapiens; experiment: Selectivity ratio of Ki for human adenosine A1 receptor to Ki for human adenosine A2A receptor
[2] = Solubility in phosphate buffer at pH 7.2; type: physicochemical
Adenosine receptor A2a [3] = biological target: T1, Adenosine receptor A2a; experiment: Antagonist activity at human adenosine A2A receptor assessed as inhibition of CGS-21680-stimulated cAMP production; type: functional
[4] = Solubility at pH >=2; type: physicochemical
[5] = Solubility in phosphate buffered saline; type: physicochemical

| SMILES | Ki (Adenosine receptor A2a [1]) | Ki (Adenosine receptor A1) | Ratio Ki (Homo sapiens) | solubility [2] | IC50 (Adenosine receptor A2a [3]) | solubility [4] | solubility [5] |
| --- | --- | --- | --- | --- | --- | --- | --- |
| COC[C@@H]1CCCN1c1cc(NC(C)=O)nc(-c2ccc(C)o2)n1 | 0.119 µM | 0.215 µM | 2 |  |  |  |  |
| COCC1CCCN1c1cc(NC(C)=O)nc(-n2nc(C)cc2C)n1 (centres undefined) | 0.009 µM | 0.32 µM | 35 |  |  |  |  |
| CC(=O)Nc1cc(N2CCC[C@H]2COc2ccccn2)nc(-n2nc(C)cc2C)n1 | 0.439 µM | 12.1 µM | 28 |  |  |  |  |
| CC(=O)Nc1cc(-c2ccccc2O)nc(-n2nc(C)cc2C)n1 | 0.0019 µM |  |  |  |  |  |  |
| COC[C@H]1C[C@@H](OC)CN1c1cc(NC(C)=O)nc(-n2nc(C)cc2C)n1 | 0.023 µM | 0.62 µM | 27 |  |  |  |  |
| COC[C@H]1CCCN1c1cc(NC(C)=O)nc(-c2cccs2)n1 | 0.047 µM | 0.203 µM | 4.3 |  |  |  |  |
| CC(=O)Nc1cc(N2CCCCC2)nc(-n2nc(C)cc2C)n1 | 0.078 µM | 3.36 µM | 43 |  |  |  |  |
| COC[C@H]1CCCN1c1cc(NC(C)=O)nc(-c2nccs2)n1 | 0.02 µM | 0.15 µM | 7.5 |  |  |  |  |
| CC(=O)Nc1cc(N2CCC[C@@H]2COc2ccccn2)nc(-n2nc(C)cc2C)n1 | 0.04 µM | 0.064 µM | 1.5 |  |  |  |  |
| CCC(=O)Nc1cc(N2CCC[C@@H]2COC)nc(-n2nc(C)cc2C)n1 | 0.0059 µM | 0.064 µM | 11 |  |  |  |  |
| COC[C@H]1CCCN1c1cc(NC(C)=O)nc(-n2nc(C)cc2C)n1 |  |  | 34 |  |  |  |  |
| COCCC1CCCCN1c1cc(NC(C)=O)nc(-n2nc(C)cc2C)n1 (single isomer, unassigned) | 0.275 µM | 4.69 µM | 17 |  |  |  |  |
| COC[C@H]1CCCN1c1cc(NC(=O)OC)nc(-n2nc(C)cc2C)n1 | 0.019 µM | 0.96 µM | 50 |  |  |  |  |
| CCN(CC)c1cc(NC(C)=O)nc(-n2nc(C)cc2C)n1 | 0.092 µM | 4.47 µM | 49 |  |  |  |  |
| CC(=O)Nc1cc(N2CCN(C)CC2)nc(-n2nc(C)cc2C)n1 | 1.87 µM | > 10 µM |  |  |  |  |  |
| COC[C@H]1C[C@H](OC)CN1c1cc(NC(C)=O)nc(-n2nc(C)cc2C)n1 | 0.0075 µM | 0.352 µM | 47 |  |  |  |  |
| COC[C@H]1CCCN1c1cc(N)nc(-n2nc(C)cc2C)n1 | 0.261 µM | 2.47 µM | 9.5 |  |  |  |  |
| COC[C@@H]1CCCN1c1cc(NC(C)=O)nc(-c2ccccn2)n1 | 0.05 µM | 0.125 µM | 2.5 |  |  |  |  |
| COC[C@H]1CCCN1c1cc(NC(C)=O)nc(-c2ccc(C)o2)n1 | 0.0027 µM | 0.0105 µM | 4 |  |  |  |  |

| SMILES | Ki (Adenosine receptor A2a [1]) | Ki (Adenosine receptor A1) | Ratio Ki (Homo sapiens) | solubility [2] | IC50 (Adenosine receptor A2a [3]) | solubility [4] | solubility [5] |
| --- | --- | --- | --- | --- | --- | --- | --- |
| COC(=O)[C@H]1CCCN1c1cc(NC(C)=O)nc(-n2nc(C)cc2C)n1 | 0.205 µM | 2.93 µM | 14 |  |  |  |  |
| COC[C@@H]1CCC(C)N1c1cc(NC(C)=O)nc(-n2nc(C)cc2C)n1 (some centres undefined) | 0.047 µM | 1.64 µM | 35 |  |  |  |  |
| CCOCC1CCCN1c1cc(NC(C)=O)nc(-n2nc(C)cc2C)n1 (centres undefined) | 0.455 µM | 4.19 µM | 9 |  |  |  |  |
| COC[C@@H]1CCCN1c1cc(NC(C)=O)nc(-n2nc(C)cc2C)n1 | 0.324 µM | 4.47 µM | 14 |  |  |  |  |
| CC(=O)Nc1cc(N2CCc3ccccc3C2)nc(-n2nc(C)cc2C)n1 | 0.0042 µM | 0.323 µM | 77 | 0.01 mg/mL (≈ 27.6 µM) |  |  |  |
| COC[C@H]1CCCN1c1cc(NC(C)=O)nc(-c2ccccn2)n1 | 0.046 µM | 0.069 µM | 1.5 |  |  |  |  |
| COC(=O)[C@@H]1CCCN1c1cc(NC(C)=O)nc(-n2nc(C)cc2C)n1 | > 10 µM |  |  |  |  |  |  |
| COC[C@@H]1CCCN1c1cc(NC(C)=O)nc(-c2cccs2)n1 | 0.027 µM | 0.325 µM | 12 |  |  |  |  |
| COc1cncc(-c2cc(NC(C)=O)nc(-n3nc(C)cc3C)n2)c1 |  |  | 82 |  | 0.085 µM | 0.01 mg/mL (≈ 29.6 µM) |  |
| CC(=O)Nc1cc(N2CCCC2CO)nc(-n2nc(C)cc2C)n1 (single isomer, unassigned) | 0.0258 µM | 1.53 µM | 59 |  |  |  |  |
| COC[C@@H]1CCCN1c1cc(NC(C)=O)nc(-c2nccs2)n1 | 0.015 µM | 0.354 µM | 23 |  |  |  |  |
| CC(=O)Nc1cc(N2CCCC2=O)nc(-n2nc(C)cc2C)n1 | 0.012 µM | 0.913 µM | 76 |  | 1 µM |  |  |
| CC(=O)Nc1cc(N2CCOCC2)nc(-n2nc(C)cc2C)n1 | 0.313 µM | 8.12 µM | 26 |  |  |  |  |
| COC[C@H]1CCCN1c1cc(NC(=O)NC(C)C)nc(-n2nc(C)cc2C)n1 | 0.043 µM | 1.28 µM | 29 |  |  |  |  |
| CC(=O)Nc1cc(N2CCCC2)nc(-n2nc(C)cc2C)n1 | 0.11 µM | 4.95 µM | 45 |  |  |  |  |
| COC[C@H]1CCCN1c1cc(NC(C)=O)nc(-n2nc(C)cc2C)n1.Cl |  |  |  |  |  |  | > 6.7 mg/mL |
| CC(=O)Nc1cc(N2CCCC2C)nc(-n2nc(C)cc2C)n1 (centres undefined) | 0.028 µM | 1.04 µM | 37 |  |  |  |  |
| COC[C@H]1CCCN1c1cc(NC(=O)CC(C)C)nc(-n2nc(C)cc2C)n1 | 0.05 µM | 0.092 µM | 2 |  |  |  |  |
